How the values were obtained:
[1] = system: monocyte/macrophages (M/M); experiment: Cell viability in monocyte/macrophages (M/M); format: cell-based, human; conditions: reduction of cell viability; Table 2
CMV AD-169 = experiment: Antiviral activity, CMV AD-169, Table 1a; format: cell-based
HSV-1 TK- VMW 1837 = experiment: Antiviral activity, HSV-1 TK- VMW 1837, Table 1a; format: cell-based
HIV-2 = experiment: Antiviral activity, HIV-2, Table 1a; format: cell-based
VZV TK + YS = experiment: Antiviral activity, VZV TK+ YS, Table 1a; format: cell-based
HSV-1 (KOS) = experiment: Antiviral activity, HSV-1 (KOS), Table 1a; format: cell-based
VZV TK − YS/R = experiment: Antiviral activity, VZV TK- YS/R, Table 1a; format: cell-based
CMV Davis = experiment: Antiviral activity, CMV Davis, Table 1a; format: cell-based
VZV TK − 07/1 = experiment: Antiviral activity, VZV TK- 07/1, Table 1a; format: cell-based
HSV-2 (G) = experiment: Antiviral activity, HSV-2 (G), Table 1a; format: cell-based
MSV = experiment: Antiviral activity, MSV, Table 1a; format: cell-based
VZV TK + OKA = experiment: Antiviral activity, VZV TK+ OKA, Table 1a; format: cell-based

| Structure (SMILES) | CC50 M/M [1] [µg/mL] | Antiviral Activity EC50 CMV AD-169 (CMV AD-169) [µg/mL] | Antiviral Activity EC50 HSV-1 TK- VMW 1837 (HSV-1 TK- VMW 1837) [µg/mL] | Antiviral Activity EC50 HIV-2 (HIV-2) [µg/mL] | Antiviral Activity EC50 VZV TK + YS (VZV TK + YS) [µg/mL] | Antiviral Activity EC50 HSV-1 (KOS) (HSV-1 (KOS)) [µg/mL] | Antiviral Activity EC50 VZV TK − YS/R (VZV TK − YS/R) [µg/mL] | Antiviral Activity EC50 CMV Davis (CMV Davis) [µg/mL] | Antiviral Activity EC50 HIV-1 (HIV-1) [µg/mL] | Antiviral Activity EC50 VZV TK − 07/1 (VZV TK − 07/1) [µg/mL] | Antiviral Activity EC50 HSV-2 (G) (HSV-2 (G)) [µg/mL] | Antiviral Activity EC50 MSV (MSV) [µg/mL] | Antiviral Activity EC50 VZV TK + OKA (VZV TK + OKA) [µg/mL] |
| --- | --- | --- | --- | --- | --- | --- | --- | --- | --- | --- | --- | --- | --- |
| C[C@H](Cn1cnc2c(N)ncnc21)OCP(=O)(O)O [(R)-PMPA, (R)-9-[(2-phosphonomethoxy)-propyl]adenine, reference compound] | >100 |  |  |  |  |  |  |  |  |  |  |  |  |
| C[C@H](COc1cc(N)nc(N)n1)OCP(=O)(O)O [Compound 11, 2,4-diamino-6-(R)-[2-(phosphonomethoxy)propoxy]pyrimidine] | >100 | >50 | 9.6 | 1.3 | 5.9 | 16 | 5.7 | >50 | 1.9 | 6.3 | 48 | 0.05 | 3.8 |
